Results reported in patent US4285941A, “Cephalosporin compounds and antibacterial drugs containing the same” (Eisai Co., Ltd., priority 1979, dated 1981).
Structures can show the parent of a compound that is named as a salt.

Experiments:
Escherichia coli NIHJ = assay: Minimal inhibitory concentration (MIC), standard agar dilution method; assay type: cell-based; conditions: Mueller Hinton agar, 37° C., 18 hours, Examples 1, 2, 4, 5, 6, 8 and 22 as sodium salts, others as free carboxylic acids
Procedure: (§1) The compounds obtained in these examples were tested for their antibacterial activities in vitro. Minimal inhibitory concentration (MIC) was determined by the standard agar dilution method of the Japan Society of Chemotherapy. Compounds were dissolved in appropriate solvents (sterilized water for sodium salts and acetone-water [1:1] for free acids) and serial two-fold dilutions were made. Sodium salt of Cefazolin was chosen as the control compound. One-ml aliquots of each dilution were mixed with 9 ml of Mueller Hinton agar in petri-dishes to make agar plates containing the compound at serially diluted concentrations. After agar hardened, plates were put in an incubator at 37° C. for 1.5-2 hours with the lids slightly open to evaporate acetone off the plates. Test organisms were grown for 18 hours at 37° C. in Trypticase Soy broth and diluted in saline to approximately 10^6 colony forming units per ml. A loopful of each cell suspension was applied on the agar plate mentioned above and the plates were incubated for 18 hours at 37° C. before MIC was determined. MIC values of the compounds of Examples 1, 2, 4, 5, 6, 8 and 22 were determined as their sodium salts and those of other compounds as free carboxylic acids.

[1] = system: Klebsiella pneumoniae EK-6; assay: as above; assay type: cell-based; conditions: EK6, Mueller Hinton agar, 37° C., 18 hours, Examples 1, 2, 4, 5, 6, 8 and 22 as sodium salts, others as free carboxylic acids
Procedure: as §1

Proteus morganii EP-14 = assay: as above; assay type: cell-based; conditions: Morganella morganii, EP14; Mueller Hinton agar, 37° C., 18 hours; Examples 1, 2, 4, 5, 6, 8 and 22 as sodium salts, others as free carboxylic acids
Procedure: as §1

[2] = system: Pseudomonas aeruginosa EP-172; assay: as above; assay type: cell-based; conditions: EP172, Mueller Hinton agar, 37° C., 18 hours, Examples 1, 2, 4, 5, 6, 8 and 22 as sodium salts, others as free carboxylic acids
Procedure: as §1

[3] = system: Serratia marcescens ES-75; assay: as above; assay type: cell-based; conditions: ES75, Mueller Hinton agar, 37° C., 18 hours, Examples 1, 2, 4, 5, 6, 8 and 22 as sodium salts, others as free carboxylic acids
Procedure: as §1

[4] = system: Staphylococcus aureus 209-P; assay: as above; assay type: cell-based; conditions: Mueller Hinton agar, 37° C., 18 hours, Examples 1, 2, 4, 5, 6, 8 and 22 as sodium salts, others as free carboxylic acids
Procedure: as §1

[5] = Acute toxicity (LD50, mouse, oral); conditions: in vivo
From the text: The acute toxicity values [LD50 (mouse, oral)] for the following compounds, for example, were over 5 g/kg: […]

Compound | MIC (Escherichia coli NIHJ) [µg/mL] | MIC [1] [µg/mL] | MIC (Proteus morganii EP-14) [µg/mL] | MIC [2] [µg/mL] | MIC [3] [µg/mL] | MIC [4] [µg/mL] | LD50 [5] [mg/kg]
Cn1nnnc1SCC1=C(C(=O)O)N2C(=O)[C@@H](NC(=O)[C@H](NC(=O)c3coc4cc(O)c(O)cc4c3=O)c3ccccc3)[C@H]2SC1 [Example 1, Sodium salt of 7β-[D-2-(6,7-dihydroxychromone-3-carboxamido)-2-phenylacetamido]-3-[(1-methyltetrazol-5-yl)-thiomethyl]-3-cephem-4-carboxylic acid] | 0.4 | ≤ 0.1 | 0.4 | 0.8 | ≤ 0.1 | 1.56 | > 5000
Cc1nnc(SCC2=C(C(=O)O)N3C(=O)[C@@H](NC(=O)[C@H](NC(=O)c4coc5cc(O)c(O)cc5c4=O)c4ccc(O)cc4)[C@H]3SC2)s1 [Example 4, Sodium salt of 7β-[D-2-(6,7-dihydroxychromone-3-carboxamido)-2-(4-hydroxyphenyl)acetamido]-3-[(5-methyl-1,3,4-thiadiazol-2-yl)thiomethyl]-3-cephem-4-carboxylicacid] | 0.8 | ≤ 0.1 | 1.56 | 1.56 | ≤ 0.1 | 1.56 | > 5000
CC(=O)Oc1cc2occ(C(=O)N[C@@H](C(=O)N[C@@H]3C(=O)N4C(C(=O)O)=C(CSc5nnnn5C)CS[C@H]34)c3ccccc3)c(=O)c2cc1OC(C)=O [Example 5, Sodium salt of 7β-[D-2-(6,7-diacetoxychromone-3-carboxamido)-2-phenylacetamido]-3-[(1-methyltetrazol-5-yl)thiomethyl]-3-cephem-4-carboxylic acid] | 0.2 | ≤ 0.1 | 0.4 | 0.4 | ≤ 0.1 | 1.56 | > 5000
O=C(O)C1=C(CSc2ccccn2)CS[C@@H]2[C@H](NC(=O)[C@H](NC(=O)c3coc4cc(O)c(O)cc4c3=O)c3ccc(O)cc3)C(=O)N12 [Example 24, 7β-[D-2-(6,7-Dihydroxychromone-3-carboxamido)-2-(4-hydroxyphenyl)acetamido]-3-(2-pyridylthiomethyl)-3-cephem-4-carboxylic acid] | 0.4 | ≤ 0.1 | 25 | 0.8 | ≤ 0.1 | 0.8 | –
CC(=O)Oc1cc2c(=O)c(C(=O)N[C@@H](C(=O)N[C@@H]3C(=O)N4C(C(=O)O)=C(CSc5nnnn5C)CS[C@H]34)c3ccc(O)cc3)coc2c(OC(C)=O)c1OC(C)=O [Example 29, 7β-[D-2-(6,7,8-Triacetoxychromone-3-carboxamido)-2-(4-hydroxyphenyl)acetamido]-3-[(1-methyltetrazol-5-yl)thiomethyl]-3-cephem-4-carboxylic acid] | 1.56 | ≤ 0.1 | 12.5 | 0.4 | 0.4 | 1.56 | –
CC(=O)Oc1cc2c(=O)c(C(=O)N[C@@H](C(=O)N[C@@H]3C(=O)N4C(C(=O)O)=C(CSc5nnnn5CC(=O)O)CS[C@H]34)c3ccc(O)cc3)coc2c(OC(C)=O)c1OC(C)=O [Example 31, 7β-[D-2-(6,7,8-Triacetoxychromone-3-carboxamido)-2-(4-hydroxyphenyl)acetamido]-3-[(1-carboxymethyltetrazol-5-yl)thiomethyl]-3-cephem-4-carboxylicacid] | 0.8 | ≤ 0.1 | 25 | 0.8 | 0.8 | 12.5 | –

Second part, led by results:

MIC (Escherichia coli NIHJ) [µg/mL] | MIC [1] [µg/mL] | MIC (Proteus morganii EP-14) [µg/mL] | MIC [2] [µg/mL] | MIC [3] [µg/mL] | MIC [4] [µg/mL] | Compound | LD50 [5] [mg/kg]
0.8 | ≤ 0.1 | 25 | 0.8 | 0.2 | 1.56 | O=C(O)C1=C(CSc2cccc[n+]2[O-])CS[C@@H]2[C@H](NC(=O)[C@H](NC(=O)c3coc4cc(O)c(O)cc4c3=O)c3ccc(O)cc3)C(=O)N12 [Example 25, 7β-[D-2-(6,7-Dihydroxychromone-3-carboxamido)-2-(4-hydroxyphenyl)acetamido]-3-[2-(pyridyl-1-oxido)thiomethyl]-3-cephem-4-carboxylic acid] | –
0.8 | ≤ 0.1 | 50 | 1.56 | 0.2 | 0.8 | O=C(O)C1=C(CSc2ncccn2)CS[C@@H]2[C@H](NC(=O)[C@H](NC(=O)c3coc4cc(O)c(O)cc4c3=O)c3ccc(O)cc3)C(=O)N12 [Example 26, 7β-[D-2-(6,7-Dihydroxychromone-3-carboxamido)-2-(4-hydroxyphenyl)acetamido]-3-(2-pyrimidinylthiomethyl)-3-cephem-4-carboxylic acid] | –
0.4 | ≤ 0.1 | 50 | 1.56 | 0.2 | 0.8 | Cc1nnc(SCC2=C(C(=O)O)N3C(=O)[C@@H](NC(=O)[C@H](NC(=O)c4coc5cc(O)c(O)cc5c4=O)c4ccc(O)cc4)[C@H]3SC2)o1 [Example 27, 7β-[D-2-(6,7-Dihydroxychromone-3-carboxamido)-2-(4-hydroxyphenyl)acetoamido]-3-[(5-methyl-1,3,4-oxadiazol-2-yl)thiomethyl]-3-cephem-4-carboxylic acid] | –
3.13 | ≤ 0.1 | 50 | 0.4 | 0.8 | 3.13 | Cn1nnnc1SCC1=C(C(=O)O)N2C(=O)[C@@H](NC(=O)[C@H](NC(=O)c3coc4c(O)c(O)c(O)cc4c3=O)c3ccc(O)cc3)[C@H]2SC1 [Example 28, 7β-[D-2-(6,7,8-Trihydroxychromone-3-carboxamido)-2-(4-hydroxyphenyl)acetamido]-3-[(1-methyltetrazol-5-yl)thiomethyl]-3-cephem-4-carboxylic acid] | –
0.8 | ≤ 0.1 | 50 | 0.8 | 0.8 | 12.5 | O=C(O)Cn1nnnc1SCC1=C(C(=O)O)N2C(=O)[C@@H](NC(=O)[C@H](NC(=O)c3coc4c(O)c(O)c(O)cc4c3=O)c3ccc(O)cc3)[C@H]2SC1 [Example 30, 7β-[D-2-(6,7,8-Trihydroxychromone-3-carboxamido)-2-(4-hydroxyphenyl)acetamido]-3-[(1-carboxymethyltetrazol-5-yl)thiomethyl]-3-cephem-4-carboxylic acid] | –
1.56 | 1.56 | > 100 | > 100 | > 100 | 0.4 | Cc1nnc(SCC2=C(C(=O)O)N3C(=O)[C@@H](NC(=O)Cn4cnnn4)[C@H]3SC2)s1 [Sodium salt of Cefazolin, reference compound] | –
